Test results published in patent publication US7960397B2, “6,9-disubstituted purine derivatives and their use as cosmetics and cosmetic compositions” (Institute of Experimental Botany, Academy of Sciences of …, priority 2007, dated 2011).

Assays:
[1] = test system: cytokinin-dependent tobacco callus Nicotiana tabacum L. cv. Wisconsin 38; assay: Cytokinin activity in tobacco callus bioassay; format: cell-based; settings: for concentration with highest activity: growth of tobacco callus, four weeks of cultivation, tested 10^−8 M to 10^−4 M; for Activity (%) [10^−5 mol · l^−1 BAP = 100%]: increase of fresh callus weight at the concentration with highest activity, 10^−5 M BAP = 100%
[2] = test system: Amaranthus caudatus cotyledon/hypocotyl explants; assay: Amaranthus bioassay (betacyanin content); parameters: species or system Amaranthus caudatus var. atropurpurea; settings: for concentration with highest activity: betacyanin content after 48 h incubation, tested 10^−8 M to 10^−4 M; for Activity (%) [10^−5 mol · l^−1 BAP = 100%]: betacyanin content at the concentration with highest activity, 10^−5 M BAP = 100%
How it was run: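 Amaranthus caudatus explants (cotyledons plus hypocotyl) from 72 h dark-grown seedlings were incubated in darkness on medium with 10 mmol Na2HPO4–KH2PO4 pH 6.8, 5 mmol tyrosine and test compound; stock was 10^−3 M in DMSO/water. Betacyanin was measured as A537−A620 and activity expressed relative to 10^−5 M BAP (100%).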

excised wheat leaf tips = assay: Antisenescence test, retention of chlorophyll in excised wheat leaf tips; parameters: species or system Triticum aestivum cv. Hereward; settings: for activity (%) [10^−4 mol · l^−1 BAP = 100%]: retention of chlorophyll in excised wheat leaf tips at the concentration with highest activity, 10 replicate determinations; for concentration with highest activity: retention of chlorophyll in excised wheat leaf tips, tested range 10^−8 M to 10^−4 M, 96 h in the dark at 25° C.
How it was run: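 Winter wheat seedlings (Triticum aestivum cv. Hereward) were raised on vermiculite with Knop's solution at 25° C. for 7 days. Tips of the first leaf, 35 mm long (five tips, 100 mg combined), stood in […] of test solution in microtiter wells. After 96 h in the dark at 25° C., chlorophyll was extracted in 80% ethanol at 80° C. and read at 665 nm. Activity is relative to 10^−4 M BAP (100%).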

[3] = test system: human diploid fibroblasts (HCA cells, HCA20, HCA40, HCA60); assay: Senescent cells (β-galactosidase staining) in culture of human fibroblasts; format: cell-based; settings: for SENESCENT CELLS (%) HCA20: human fibroblasts passage 20 (HCA20); for SENESCENT CELLS (%) HCA40: human fibroblasts passage 40 (HCA40); for SENESCENT CELLS (%) HCA60: human fibroblasts passage 60 (HCA60)
How it was run: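 Fibroblasts taken at passages 20, 40 and 60 were washed and fixed for 5 min at room temperature in 2% formaldehyde/0.2% glutaraldehyde in PBS. After PBS washes, cells were incubated at 37 °C for β-galactosidase staining.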

β-adrenergic receptors = assay: Isoproterenol-induced cAMP synthesis in rat C6 glioma; format: cell-based; settings: cellular cAMP, simultaneous addition with isoproterenol, 30 min
Protocol: Anti-inflammatory activity. The compounds of formula 1 having anti-inflammatory activities can be used as cosmetics for treating inflammation skin disorders as atopic dermatitis, lichen planus, hyperpigmentation and Herpes simplex lesions. From this reason, rat C6 glioma (ATCC No. CCL107) was cultivated as a monolayer in a serum-free chemically defined medium containing Ham's F10-minimal essential medium (1:1 v/v), 2 mM L-glutamine, 1% (v/v) minimal essential medium vitamins (100×), 1% (v/v) minimal essential medium nonessential amino acids (100×), 100U/ml penicillin, […] streptomycin and 30 nM sodium selenite. Incubation was performed at 37° C. in a humidified atmosphere. The assays were performed in the logarithmic growth phase at a density of 2.5×10^5 cells/cm^2. Intracellular cAMP synthesis was induced by addition of […] (−)isoproterenol. After 30 min incubation at 37° C. the medium was removed and the cellular amount of cAMP was determined using the cAMP-enzyme immunoassay Amersham kit. The I50 value was determined from a dose-response curve in duplicate. The effect of the novel 6,9-disubstituted purines was measured after simultaneous addition with isoproterenol.
As P2Y1-like and A2 purinergic receptors, negatively and positively coupled to adenylate cyclase, respectively, are present in rat C6 glioma, it remains to be determined whether the modulation of the synthesis of cAMP is due to the inhibition of the activation of β-adrenergic receptors by isoproterenol, or due to the activation of purinergic receptors.

[4] = test system: breast carcinoma cell line MCF-7; assay: In vitro cytotoxicity, Calcein AM assay; settings: read-out: GI50 MCF7; MCF7, 72 hours, Calcein AM
Protocol: (§1) Because only metabolically active cells cleave Calcein AM, these assays detect viable cells exclusively. The quantity of reduced Calcein AM corresponds to the number of vital cells in the culture.
(§2) The cells were maintained in Nunc/Corning 80 cm^2 plastic tissue culture flasks and cultured in cell culture medium (DMEM with 5 g/l glucose, 2 mM glutamine, 100 U/ml penicillin, 100 mg/ml streptomycin, 10% fetal calf serum and sodium bicarbonate).
(§3) The cell suspensions that were prepared and diluted according to the particular cell type and the expected target cell density (2,500-30,000 cells per well based on cell growth characteristics) were added by pipette (80 ml) into 96-well microtiter plates. Inoculates were allowed a pre-incubation period of 24 hours at 37° C. and 5% CO2 for stabilization. Four-fold dilutions of the intended test concentration were added at time zero in 20 ml aliquots to the microtiter plate wells. Usually, the compound tested was evaluated at six 4-fold dilutions. […] All drug concentrations were examined in duplicate. Incubations of cells with the tested compounds lasted for 72 hours at 37° C., in a 5% CO2 atmosphere and 100% humidity. At the end of the incubation period, the cells were assayed by using Calcein AM. Ten microliters of the stock solution were pipetted into each well and incubated for 1 hour. Fluorescence (FD) was measured with the Labsystem FIA Reader Fluoroscan Ascent (UK).

human osteosarcoma HOS = assay: In vitro cytotoxicity, Calcein AM assay; settings: read-out: GI50 HOS; HOS, 72 hours, Calcein AM
Protocol: as §1, §2, §3

[5] = test system: human myeloid leukemia K-562; assay: In vitro cytotoxicity, Calcein AM assay; settings: read-out: GI50 K-562; K-562, 72 hours, Calcein AM
Protocol: as §1, §2, §3

[6] = test system: Human T-lymphoblastic leukemia cell line CEM; assay: In vitro cytotoxicity, Calcein AM assay; settings: read-out: GI50 CEM; CEM, 72 hours, Calcein AM
Protocol: as §1, §2, §3

[7] = test system: promyelocytic HL-60 leukemia; assay: In vitro cytotoxicity, Calcein AM assay; settings: read-out: GI50 HL60; HL60, 72 hours, Calcein AM
mouse fibroblasts NIH3T3 = assay: In vitro cytotoxicity, Calcein AM assay; settings: read-out: GI50 NIH-3T3; NIH-3T3, 72 hours, Calcein AM
Protocol: as §1, §2, §3

Compound	concentration with highest activity [1]	Activity (%) [10^−5 mol · l^−1 BAP = 100%] [1]	concentration with highest activity [2]	Activity (%) [10^−5 mol · l^−1 BAP = 100%] [2]	activity (%) [10^−4 mol · l^−1 BAP = 100%] (excised wheat leaf tips)	concentration with highest activity (excised wheat leaf tips)	SENESCENT CELLS (%) HCA20 [3]	SENESCENT CELLS (%) HCA40 [3]	SENESCENT CELLS (%) HCA60 [3]	Effect (modulation of the activity of β-adrenergic receptors) (β-adrenergic receptors)	GI50 [4]	GI50 (human osteosarcoma HOS)	GI50 [5]	GI50 [6]	GI50 [7]	GI50 (mouse fibroblasts NIH3T3)
Oc1ccc(CNc2ncnc3c2ncn3C2CCCCO2)cc1O (stereo not drawn)	10^−5 mol · l^−1	61%	10^−4 mol · l^−1	52%	71.3%	10^−4 mol · l^−1	3%	4%	15%	1.7-fold fold activation	–	–	–	–	–	–
COc1cc(O)cc(OC)c1CNc1ncnc2c1ncn2C1CCCCO1 (stereo not drawn)	10^−5 mol · l^−1	43%	10^−4 mol · l^−1	12%	22%	10^−4 mol · l^−1	4%	5%	21%	1.3-fol fold activation	–	–	–	–	–	–
COc1cc(CNc2ncnc3c2ncn3C2CCCCO2)ccc1O (stereo not drawn)	10^−6 mol · l^−1	62%	10^−4 mol · l^−1	57%	55%	10^−4 mol · l^−1	4%	4%	19%	1.6-fold fold activation	–	–	–	–	–	–
Oc1coc(CNc2ncnc3c2ncn3C2CCCCO2)c1 (stereo not drawn)	10^−6 mol · l^−1	91%	10^−4 mol · l^−1	115%	101%	10^−4 mol · l^−1	4%	4%	16%	–	> 167 µM	> 167 µM	> 167 µM	–	–	–
Oc1ccccc1CNc1ncnc2[nH]cnc12 [2-hydroxybenzylamino / H, reference compound]	10^−5 mol · l^−1	72.3%	10^−4 mol · l^−1	32.6%	22.4%	10^−4 mol · l^−1	–	–	–	–	> 167 µM	> 167 µM	> 167 µM	69.2 µM	78 µM	> 167 µM
Oc1cccc(CNc2ncnc3[nH]cnc23)c1 [3-hydroxybenzylamino / H, reference compound]	10^−5 mol · l^−1	116%	10^−5 mol · l^−1	99%	105.9%	10^−4 mol · l^−1	–	–	–	–	> 167 µM	> 167 µM	128 µM	90.1 µM	79.2 µM	> 167 µM
